Data reported in publication PMC10293011, “An allosteric pan-TEAD inhibitor blocks oncogenic YAP/TAZ signaling and overcomes KRAS G12C inhibitor resistance” (Nature Cancer, 2023).

Molecular target: T1, TEAD3 (Homo sapiens, UniProt Q99594)
T1 construct: with YAP peptide (amino acids 50–100)
Assay: TEAD3–YAP TR-FRET with purified protein (IC50); lipid displacement TR-FRET
Format: binding

T1 sequence (Q99594 216-435): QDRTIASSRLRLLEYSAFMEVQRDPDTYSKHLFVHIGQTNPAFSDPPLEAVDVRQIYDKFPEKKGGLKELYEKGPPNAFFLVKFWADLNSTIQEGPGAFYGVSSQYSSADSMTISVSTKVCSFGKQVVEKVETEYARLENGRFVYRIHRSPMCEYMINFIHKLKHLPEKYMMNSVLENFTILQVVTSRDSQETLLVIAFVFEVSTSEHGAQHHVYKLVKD
T1 sequence (P46937 50-100 partner): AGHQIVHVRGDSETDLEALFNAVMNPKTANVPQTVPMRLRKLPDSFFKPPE

## CCOC(=O)c1cnn2c(=O)cc(-c3ccc(C(F)(F)F)cc3)[nH]c12 [compound 1]
  IC50: 1400 nM
